Data taken from article PMC9669616, “The recommended dosage regimen for caspofungin in patients with higher body weight or hypoalbuminaemia will result in low exposure: Five years of data based on a population pharmacokinetic model and Monte-Carlo simulations” (Frontiers in Pharmacology, 2022).
≈ marks a conversion by molar mass, not a printed value. Where two headings read alike, the source gives them in different places.

Legend:
C. parapsilosis = conditions: ref Li et al., 2013; cited from earlier work
Excerpt: (§1) The first goal of this study was to determine whether the contemporary dosage regimens for caspofungin can achieve the target PK/PD index against Candida isolates in all patients and especially in ICU patients. […] At present, the relationship between caspofungin Cmax and toxicity remains poorly clarified ([Kim et al., 2022]). In this study, we only used the fAUC/MIC as caspofungin PK/PD target for we could get th ...

C. glabrata = conditions: ref Li et al., 2013; cited from earlier work
Excerpt: as §1

C. albicans = conditions: ref Li et al., 2013; cited from earlier work
Excerpt: as §1

[1] = cited from earlier work
Excerpt: Safety also needs to be considered when increasing the caspofungin exposure, because any harm to the patient should be minimal.

[2] = healthy subjects; ref Stone et al., 2002; cited from earlier work
Excerpt: Van den Elst et al. found the caspofungin exposure in ICU patients was low compared with that in healthy volunteers and other (non)critically ill patients ([van der Elst et al., 2017]). Many factors could influence the caspo ...

[3] = general population pharmacokinetic (PPK) model, all patients; type: in vivo, human; set-up: AUC: concentration or dose not given beside the values; conditions: for AUC / clearance: general PPK model, mean ± SD (range)
Procedure: The patients for the general PPK model came from a single-center, and the study was conducted from June 2014 to June 2019 at the First Affiliated Hospital of Xi’an Jiaotong University. Patients who had been diagnosed with confirmed or probable candidiasis and been treated with caspofungin were included in the study. The identification of infection was according to the IFIs Cooperative Group and the National Institute of Allergy and Infectious Diseases Mycoses Study Group criteria ([De Pauw et al., 2008]). All patients were divided into four groups (ICU patients, SOT patients, HEMT patients, and other patients from respiratory department). Caspofungin was administered intravenously over 1 h. Most of the patients received the standard dosage regimen of 70/50 mg. Patients with hepatic insufficiency (Child-Pugh B) received a reduced dosage regimen of 70/35 mg and patients with body weight (WT) > 75 kg received an increased dosage regimen of 70/70 mg. The study protocol was approved by the institutional review board of the teaching hospital (No.XJTU1AF2017LSK-28). All subjects signed the informed consent before any screening item being performed. History of hypersensitivity, severe intolerance to caspofungin, other constituents change resulted from caspofungin, age <18 years and pregnancies were excluded in the study.
Factors which may influence the PK parameters of caspofungin were collected for the patients of the general PPK model from the teaching hospital. The factors included demographic factors (sex, age and WT); medical characteristics [carrier mediated transportation (CMT), surgical operation (SOP), baseline disease, organ support therapy]; laboratory data [red blood cells, hemoglobin, hematocrit, white blood cell, lymphocyte, neutrophile, platelets, alanine aminotransferase, aspartate transaminase, alkaline phosphatase, gamma-glutamyl transpeptidase, total bilirubin, albumin (ALB), blood urea nitrogen, uric acid, serum creatinine acid, creatinine clearance rate]; concomitant medications (immunosuppressants, glucocorticoid, antimicrobial agents and antivirals) and other related factors. Because we could not obtain all values of ICU patients for the seven literature studies, only factors which may have a great influence on the PK of caspofungin, such as sex, age, WT, dosage and method of administration, ALB concentrations and whether concomitant continuous renal replacement therapy (CRRT) of ICU patients from the teaching hospital and other seven studies were collected for the construction of the ICU-subgroup PPK model. The selection criteria were based on the results obtained from previous studies of factors influencing the caspofungin plasma concentration ([Spriet et al., 2009]; [Spriet et al., 2011]; [Weiler et al., 2013]; [Muilwijk et al., 2014]; [Sinnollareddy et al., 2015]; [Roger et al., 2017]; [van der Elst et al., 2017]). […] Combined with the clinical situation, the ALB and WT were converted into dichotomous variables according to whether the ALB <35 g/L or ≥35 g/L and whether the WT < 70 kg or ≥70 kg, respectively.
We collected the pooled data of caspofungin plasma samples from patients at the teaching hospital who received caspofungin prevention or treatment therapies from June 2014 to June 2019. Caspofungin plasma C min samples were collected at interval windows of 22–24 h post-dose, while other caspofungin plasma samples were collected at interval windows of 0–12 h and 12–22 h post-dose. The caspofungin plasma concentrations from the other seven studies of ICU patients—which included both dense sampling and sparse sampling—were directly collected from the relevant published papers, and all related caspofungin plasma concentrations were collected ([Spriet et al., 2009]; [Spriet et al., 2011]; [Weiler et al., 2013]; [Muilwijk et al., 2014]; [Sinnollareddy et al., 2015]; [Roger et al., 2017]; [van der Elst et al., 2017]). […]

[4] = cited from earlier work; remark: listed apart in the source
Excerpt: Van den Elst et al. found the caspofungin exposure in ICU patients was low compared with that in healthy volunteers and other (non)critically ill patients ([van der Elst et al., 2017]).

ALB = conditions: cited from earlier work
Excerpt: The final general and ICU-subgroup PPK models of caspofungin were used for the simulation study to evaluate the degree of exposure. A MCS method published before ([Pfaller et al., 2006]) was used for analyzing the probability of target attainment (PTA) and cumulative fraction of response (CFR) following various caspofungin dosage regimens in all patients and ICU patients. […] Caspofungin was extensively bound to ALB (97%) ([Stone ...

[5] = all patients n = 299, final model
[6] = human, plasma, iv, ICU patients of the teaching hospital
[7] = human, plasma, iv, all patients n = 299
[8] = human, plasma, iv, hematopathy patients
[9] = human, plasma, iv, other patients
[10] = human, plasma, iv, transplant (SOT) patients

Which “MIC, mean” value (C. parapsilosis) does the source give for CC[C@H](C)C[C@H](C)CCCCCCCCC(=O)N[C@H]1C[C@@H](O)[C@@H](NCCN)NC(=O)[C@@H]2[C@@H](O)CCN2C(=O)[C@H]([C@H](O)CCN)NC(=O)[C@H]([C@H](O)[C@@H](O)c2ccc(O)cc2)NC(=O)[C@@H]2C[C@@H](O)CN2C(=O)[C@H]([C@@H](C)O)NC1=O [caspofungin] here?
The value was 1.5 µg/mL (≈ 1.37 µM).

What about the “MIC, range” value (C. parapsilosis) of the same compound?
The value was 0.38 to 2 µg/mL.

What about the “MIC, mean” value (C. glabrata) of the same compound?
The value was 0.25 µg/mL (≈ 0.229 µM).

And the “MIC, range” value (C. glabrata)?
The value was 0.047 to 0.38 µg/mL.

What about the “MIC, mean” value (C. albicans) of the same compound?
The value was 0.19 µg/mL (≈ 0.174 µM).

What about the “MIC, range” value (C. albicans) of the same compound?
The value was 0.032 to 0.38 µg/mL.

And the tolerability ([1]; 150 mg daily for a median of 24.5 days, ref Cornely et al., 2011)?
The tolerability was “well tolerated without dose-limiting toxicity”.

What about the tolerability ([1]; patients with invasive candidiasis, 150 mg daily, mean duration 14.2 days, ref Betts et al., 2009) of the same compound?
Its tolerability is “well tolerated”.

And the “plasma trough concentration (C min), range” value [2]?
The value was 1120 to 1780 ng/mL.

What about the “θ1, typical population value of CL” value [3, 5] of the same compound?
The value was 0.32 L/h.

And the “θ4, influence of ALB (<35 g/L) on V” value [3, 5]?
Its value is 0.49.

And the “θ6, influence of WT (≥70 kg) on V” value [3, 5]?
Its value is 0.24.

And the “θ4, influence of ALB (<35 g/L) on V” value ([3]; all patients, bootstrap, lower boundary of 95% CI)?
The value was 0.25.

And the “θ4, influence of ALB (<35 g/L) on V” value ([3]; all patients, bootstrap, upper boundary of 95% CI)?
The value was 0.73.

What about the AUC [3, 6] of the same compound?
The AUC was 101 µg·h/mL.

And the clearance [3, 6]?
The clearance was 7.83 mL/min.

What about the AUC [3, 7] of the same compound?
Its AUC is 126 µg·h/mL.

What about the clearance [3, 7] of the same compound?
The clearance was 7 mL/min.

And the AUC [3, 8]?
The AUC was 118 µg·h/mL.

What about the clearance [3, 8] of the same compound?
The clearance was 7.5 mL/min.

And the AUC [3, 9]?
The AUC was 120 µg·h/mL.

What about the clearance [3, 9] of the same compound?
The clearance was 6.83 mL/min.

And the AUC [3, 10]?
Its AUC is 136 µg·h/mL.

And the clearance [3, 10]?
The clearance was 6.67 mL/min.

What about the Vd ([3]; human, plasma, iv, all patients n = 299, final model, read-out: θ2, typical population value of V) of the same compound?
Its Vd is 13.3 L.

And the “CL, typical value” ([4]; ICU patients, day 1, ref Borsuk-De Moor et al., 2020)?
Its value is 0.563 L/h.

And the “CL, typical value” ([4]; ICU patients, day 2, ref Borsuk-De Moor et al., 2020)?
The value was 0.737 L/h.

And the “CL, typical value” ([4]; ICU patients, day 3, ref Borsuk-De Moor et al., 2020)?
The value was 1.01 L/h.

What about the “decrease in caspofungin exposure” value ([4]; ICU patients, increasing clearance with subsequent doses, ref Borsuk-De Moor et al., 2020) of the same compound?
Its value is greater than 20%.

What about the CL ([4]; ICU patients, ref Martial et al., 2016) of the same compound?
The CL was 0.55 L/h.

What about the CL ([4]; critically-ill Chinese patients, ref Li et al., 2021) of the same compound?
Its CL is 0.32 L/h.

And the CL ([4]; general patients, ref Wurthwein et al., 2012)?
The CL was 0.46 L/h.

And the CL ([4]; general patients, ref Wurthwein et al., 2013)?
Its CL is 0.40 L/h.

And the “bound to ALB” value (ALB; ref Stone et al., 2004)?
The value was 97%.

What about the protein binding value (ALB; used to calculate free drug concentrations in the simulation, ref Andes et al., 2010) of the same compound?
Its protein binding value is 97%.
